# Data: US10681909B2, “Herbicidal triazoles” (FMC Corporation, priority 2014, dated 2020)
# What was measured:
# waterhemp [1] = assay: Test E preemergence; format: in vivo, Amaranthus rudis; conditions: scale 0 to 100
# From the text: (§1) Seeds of plant species selected from corn (Zea mays), soybean (Glycine max), lambsquarters (Chenopodium album), poinsettia, wild (wild poinsettia, Euphorbia heterophylla), pigweed, palmer (palmer pigweed, Amaranthus palmeri), waterhemp (common waterhemp, Amaranthus rudis), surinam grass (Brachiaria decumbens), crabgrass, large (large crabgrass, Digitaria sanguinalis), crabgrass, Brazilian (Brazilian crabgrass, Digitaria horizontalis), panicum, fall (fall panicum, Panicum dichotomiflorum), foxtail, giant (giant foxtail, Setaria faberii), foxtail, green (green foxtail, Setaria viridis), goosegrass (Eleusine indica), johnsongrass (Sorghum halepense), ragweed (common ragweed, Ambrosia elatior), barnyardgrass (Echinochloa crus-galli), sandbur (southern sandbur, Cenchrus echinatus), arrowleaf sida (Sida rhombifolia), ryegrass, Italian (Italian ryegrass, Lolium multiflorum), dayflower, VA (Virginia dayflower, Commelina virginica), field bindweed (Convolvulus arvensis), cocklebur (common cocklebur, Xanthium strumarium), morningglory (Ipomoea coccinea), nightshade (eastern black nightshade, Solanum ptycanthum), kochia (Kochia scoparia), nutsedge, yellow (yellow nutsedge, Cyperus esculentus), smartweed (ladysthumb smartweed, Polygonum persicaria), velvetleaf (Abutilon theophrasti), horseweed (Conyza canadensis), and beggarticks (hairy beggarticks, Bidens pilosa), were planted into a silt loam soil and treated preemergence with test chemicals formulated in a non-phytotoxic solvent mixture which included a surfactant.
# (§2) At the same time, plants from these crop and weed species and also waterhemp_RES1, (ALS & Triazine resistant common waterhemp, Amaranthus rudis), and waterhemp_RES2, (ALS & HPPD resistant common waterhemp, Amaranthus rudis) were planted in pots containing Sunshine Redi-Earth® planting medium comprising spaghnum peat moss, vermiculite, starter nutrients and dolomitic limestone were treated with postemergence applications of test chemicals formulated in the same manner. Plants ranged in height from 2 to 18 cm for postemergence treatments (1- to 4-leaf stage). Treated plants and controls were maintained in a greenhouse for 14 to 21 d, after which time all species were compared to controls and visually evaluated. Plant response ratings, summarized in Table E, are based on a scale of 0 to 100 where 0 is no effect and 100 is complete control. A dash (-) response means no test result.
# field bindweed [2] = assay: Test E preemergence; format: in vivo, Convolvulus arvensis; conditions: scale 0 to 100
# From the text: as §1, §2
# [3] = tested on: waterhemp_RES1 (ALS & Triazine resistant common waterhemp); assay: Test E postemergence; format: in vivo, Amaranthus rudis; conditions: scale 0 to 100
# From the text: as §1, §2
# [4] = tested on: waterhemp_RES2 (ALS & HPPD resistant common waterhemp); assay: Test E postemergence; format: in vivo, Amaranthus rudis; conditions: scale 0 to 100
# From the text: as §1, §2
# waterhemp [5] = assay: Test E postemergence; format: in vivo, Amaranthus rudis; conditions: scale 0 to 100
# From the text: as §1, §2
# crabgrass, Brazilian = assay: Test E postemergence; format: in vivo, Digitaria horizontalis; conditions: Brazil, scale 0 to 100
# From the text: as §1, §2
# field bindweed [6] = assay: Test E postemergence; format: in vivo, Convolvulus arvensis; conditions: scale 0 to 100
# From the text: as §1, §2
# poinsettia, wild = assay: Test E preemergence; format: in vivo, Euphorbia heterophylla; conditions: scale 0 to 100
# From the text: as §1, §2
# cocklebur = assay: Test E preemergence; format: in vivo, Xanthium strumarium; conditions: scale 0 to 100
# From the text: as §1, §2
# smartweed = assay: Test E preemergence; format: in vivo, Polygonum persicaria; conditions: scale 0 to 100
# From the text: as §1, §2
# rice = assay: Test C flooded paddy test; format: in vivo, Oryza sativa; conditions: Flood, applied to paddy water, rating after 13 to 15 d
# From the text: (§3) At time of treatment, test pots were flooded to 3 cm above the soil surface, treated by application of test compounds directly to the paddy water, and then maintained at that water depth for the duration of the test. Treated plants and controls were maintained in a greenhouse for 13 to 15 d, after which time all species were compared to controls and visually evaluated. […] A dash (-) response means no test result.
# sedge, umbrella = assay: Test C flooded paddy test; format: in vivo, Cyperus difformis; conditions: Flood, applied to paddy water, rating after 13 to 15 d
# From the text: as §3
# ducksalad = assay: Test C flooded paddy test; format: in vivo, Heteranthera limosa; conditions: Flood, applied to paddy water, rating after 13 to 15 d
# From the text: as §3
# barnyardgrass = assay: Test C flooded paddy test; format: in vivo, Echinochloa crus-galli; conditions: Flood, applied to paddy water, rating after 13 to 15 d
# From the text: as §3
# horseweed [7] = assay: Test E preemergence; format: in vivo, Conyza canadensis; conditions: scale 0 to 100
# From the text: as §1, §2
# horseweed [8] = assay: Test E postemergence; format: in vivo, Conyza canadensis; conditions: scale 0 to 100
# From the text: as §1, §2
structure (smiles),measurement,setting,value
CCOc1nc(-c2ccccc2)nn1Cc1ccnc(C(F)(F)F)c1 [Compound 27],Plant response rating,waterhemp [1]; 16 g ai/ha,100
same,Plant response rating,waterhemp [1]; 31 g ai/ha,100
same,Plant response rating,waterhemp [1]; 62 g ai/ha,100
same,Plant response rating,waterhemp [1]; 125 g ai/ha,100
same,Plant response rating,field bindweed [2]; 16 g ai/ha,0
same,Plant response rating,field bindweed [2]; 31 g ai/ha,0
same,Plant response rating,field bindweed [2]; 62 g ai/ha,60
same,Plant response rating,field bindweed [2]; 125 g ai/ha,90
same,Plant response rating,[3]; 16 g ai/ha,95
same,Plant response rating,[3]; 31 g ai/ha,95
same,Plant response rating,[3]; 62 g ai/ha,95
same,Plant response rating,[3]; 125 g ai/ha,98
same,Plant response rating,[4]; 16 g ai/ha,90
same,Plant response rating,[4]; 31 g ai/ha,95
same,Plant response rating,[4]; 62 g ai/ha,90
same,Plant response rating,[4]; 125 g ai/ha,90
same,Plant response rating,waterhemp [5]; 16 g ai/ha,95
same,Plant response rating,waterhemp [5]; 31 g ai/ha,98
same,Plant response rating,waterhemp [5]; 62 g ai/ha,95
same,Plant response rating,waterhemp [5]; 125 g ai/ha,95
same,Plant response rating,"crabgrass, Brazilian; 16 g ai/ha",20
same,Plant response rating,"crabgrass, Brazilian; 31 g ai/ha",20
same,Plant response rating,"crabgrass, Brazilian; 62 g ai/ha",30
same,Plant response rating,"crabgrass, Brazilian; 125 g ai/ha",40
same,Plant response rating,field bindweed [6]; 16 g ai/ha,50
same,Plant response rating,field bindweed [6]; 31 g ai/ha,60
same,Plant response rating,field bindweed [6]; 62 g ai/ha,70
same,Plant response rating,field bindweed [6]; 125 g ai/ha,80
"CCCc1nc(-c2ccc(F)cc2)nn1Cc1ccnc(C(F)(F)F)c1 [Compound 6, 4-[[3-(4-fluorophenyl)-5-propyl-1H-1,2,4-triazol-1-yl]methyl]-2-(trifluoromethyl)pyridine]",Plant response rating,"poinsettia, wild; 16 g ai/ha",15
same,Plant response rating,"poinsettia, wild; 31 g ai/ha",30
same,Plant response rating,"poinsettia, wild; 62 g ai/ha",50
same,Plant response rating,"poinsettia, wild; 125 g ai/ha",50
same,Plant response rating,"poinsettia, wild; 250 g ai/ha",95
same,Plant response rating,waterhemp [1]; 31 g ai/ha,80
same,Plant response rating,waterhemp [1]; 62 g ai/ha,100
same,Plant response rating,waterhemp [1]; 125 g ai/ha,100
same,Plant response rating,waterhemp [1]; 250 g ai/ha,100
same,Plant response rating,field bindweed [2]; 16 g ai/ha,10
same,Plant response rating,field bindweed [2]; 31 g ai/ha,10
same,Plant response rating,field bindweed [2]; 62 g ai/ha,30
same,Plant response rating,field bindweed [2]; 125 g ai/ha,50
same,Plant response rating,field bindweed [2]; 250 g ai/ha,70
same,Plant response rating,cocklebur; 16 g ai/ha,0
same,Plant response rating,cocklebur; 31 g ai/ha,0
same,Plant response rating,cocklebur; 62 g ai/ha,0
same,Plant response rating,cocklebur; 250 g ai/ha,10
same,Plant response rating,smartweed; 16 g ai/ha,20
same,Plant response rating,smartweed; 31 g ai/ha,50
same,Plant response rating,smartweed; 62 g ai/ha,60
same,Plant response rating,smartweed; 125 g ai/ha,95
same,Plant response rating,smartweed; 250 g ai/ha,95
"Cn1nc(-c2ccc(F)cc2)nc1Oc1cccc(C(F)(F)F)c1 [Compound 5, 3-(4-fluorophenyl)-1-methyl-5-[3-(trifluoromethyl)phenoxy]-1H-1,2,4-triazole]",Rice plant response rating (0 to 100),rice; 31 g ai/ha,0
same,Rice plant response rating (0 to 100),rice; 62 g ai/ha,0
same,Rice plant response rating (0 to 100),rice; 125 g ai/ha,0
same,Rice plant response rating (0 to 100),rice; 250 g ai/ha,0
same,"Sedge, Umbrella plant response rating (0 to 100)","sedge, umbrella; 31 g ai/ha",0
same,"Sedge, Umbrella plant response rating (0 to 100)","sedge, umbrella; 62 g ai/ha",0
same,"Sedge, Umbrella plant response rating (0 to 100)","sedge, umbrella; 125 g ai/ha",20
same,"Sedge, Umbrella plant response rating (0 to 100)","sedge, umbrella; 250 g ai/ha",40
same,Ducksalad plant response rating (0 to 100),ducksalad; 31 g ai/ha,20
same,Ducksalad plant response rating (0 to 100),ducksalad; 62 g ai/ha,30
same,Ducksalad plant response rating (0 to 100),ducksalad; 125 g ai/ha,40
same,Ducksalad plant response rating (0 to 100),ducksalad; 250 g ai/ha,60
same,Barnyardgrass plant response rating (0 to 100),barnyardgrass; 31 g ai/ha,10
same,Barnyardgrass plant response rating (0 to 100),barnyardgrass; 62 g ai/ha,10
same,Barnyardgrass plant response rating (0 to 100),barnyardgrass; 125 g ai/ha,15
same,Barnyardgrass plant response rating (0 to 100),barnyardgrass; 250 g ai/ha,15
Fc1ccc(-c2nc(OCC(F)(F)F)n(Cc3ccnc(C(F)(F)F)c3)n2)cc1 [Compound 30],Plant response rating,waterhemp [1]; 31 g ai/ha,100
same,Plant response rating,waterhemp [1]; 62 g ai/ha,100
same,Plant response rating,waterhemp [1]; 125 g ai/ha,100
same,Plant response rating,waterhemp [1]; 250 g ai/ha,100
same,Plant response rating,field bindweed [2]; 31 g ai/ha,10
same,Plant response rating,field bindweed [2]; 62 g ai/ha,25
same,Plant response rating,field bindweed [2]; 125 g ai/ha,65
same,Plant response rating,field bindweed [2]; 250 g ai/ha,75
same,Plant response rating,horseweed [7]; 31 g ai/ha,100
same,Plant response rating,horseweed [7]; 62 g ai/ha,100
same,Plant response rating,horseweed [7]; 125 g ai/ha,100
same,Plant response rating,horseweed [7]; 250 g ai/ha,100
same,Plant response rating,[3]; 31 g ai/ha,95
same,Plant response rating,[3]; 62 g ai/ha,98
same,Plant response rating,[3]; 125 g ai/ha,100
same,Plant response rating,[3]; 250 g ai/ha,95
same,Plant response rating,[4]; 31 g ai/ha,95
same,Plant response rating,[4]; 62 g ai/ha,95
same,Plant response rating,[4]; 125 g ai/ha,95
same,Plant response rating,[4]; 250 g ai/ha,95
same,Plant response rating,waterhemp [5]; 31 g ai/ha,95
same,Plant response rating,waterhemp [5]; 62 g ai/ha,95
same,Plant response rating,waterhemp [5]; 125 g ai/ha,95
same,Plant response rating,waterhemp [5]; 250 g ai/ha,95
same,Plant response rating,"crabgrass, Brazilian; 31 g ai/ha",35
same,Plant response rating,"crabgrass, Brazilian; 62 g ai/ha",60
same,Plant response rating,"crabgrass, Brazilian; 125 g ai/ha",70
same,Plant response rating,"crabgrass, Brazilian; 250 g ai/ha",85
same,Plant response rating,field bindweed [6]; 31 g ai/ha,70
same,Plant response rating,field bindweed [6]; 62 g ai/ha,70
same,Plant response rating,field bindweed [6]; 125 g ai/ha,75
same,Plant response rating,field bindweed [6]; 250 g ai/ha,70
COc1nc(-c2ccc(Cl)cc2)nn1Cc1ccnc(C(F)(F)F)c1 [Compound 28],Plant response rating,[3]; 31 g ai/ha,95
same,Plant response rating,[3]; 62 g ai/ha,95
same,Plant response rating,[3]; 125 g ai/ha,95
same,Plant response rating,[3]; 250 g ai/ha,95
same,Plant response rating,[4]; 31 g ai/ha,95
same,Plant response rating,[4]; 62 g ai/ha,90
same,Plant response rating,[4]; 125 g ai/ha,90
same,Plant response rating,[4]; 250 g ai/ha,95
same,Plant response rating,waterhemp [5]; 31 g ai/ha,90
same,Plant response rating,waterhemp [5]; 62 g ai/ha,90
same,Plant response rating,waterhemp [5]; 125 g ai/ha,95
same,Plant response rating,waterhemp [5]; 250 g ai/ha,95
same,Plant response rating,"crabgrass, Brazilian; 31 g ai/ha",40
same,Plant response rating,"crabgrass, Brazilian; 62 g ai/ha",50
same,Plant response rating,"crabgrass, Brazilian; 125 g ai/ha",50
same,Plant response rating,"crabgrass, Brazilian; 250 g ai/ha",50
same,Plant response rating,field bindweed [6]; 31 g ai/ha,50
same,Plant response rating,field bindweed [6]; 62 g ai/ha,75
same,Plant response rating,field bindweed [6]; 125 g ai/ha,80
same,Plant response rating,field bindweed [6]; 250 g ai/ha,80
same,Plant response rating,horseweed [8]; 31 g ai/ha,20
same,Plant response rating,horseweed [8]; 62 g ai/ha,20
same,Plant response rating,horseweed [8]; 125 g ai/ha,35
same,Plant response rating,horseweed [8]; 250 g ai/ha,40
"CCOc1nc(-c2ccc(F)cc2)nn1Cc1ccnc(C(F)(F)F)c1 [Compound 8, 4-[[5-ethoxy-3-(4-fluorophenyl)-1H-1,2,4-triazol-1-yl]methyl]-2-(trifluoromethyl)pyridine]",Plant response rating,"poinsettia, wild; 62 g ai/ha",70
same,Plant response rating,"poinsettia, wild; 125 g ai/ha",95
same,Plant response rating,waterhemp [1]; 62 g ai/ha,100
same,Plant response rating,waterhemp [1]; 125 g ai/ha,100
same,Plant response rating,field bindweed [2]; 62 g ai/ha,70
same,Plant response rating,field bindweed [2]; 125 g ai/ha,95
